Values joined by “and” are separate entries in the source; they are usually repeats but may differ in a detail not shown here. Equal entries are not always repeated. Toxic doses and inconclusive results are not listed.

From PubChem BioAssay AID284 (DTP/NCI, 2004) come the findings set out here.

This test has as its system BDF1 mice, L1210/MTX-resistant leukemia ip, survival T/C. Kind of test: NCI In Vivo Anticancer Drug Screen. Data for tumor model L1210 Leukemia resistant to Methotrexate; NSC 740 (intraperitoneal) in B6D2F1 (BDF1) mice. The conditions noted are these: endpoint: mean survival time, higher = longer survival. As for the experimental part:
The antitumor activity of compounds was measured in mice bearing transplantable tumors. Survival or tumor size were measured and the results are expressed as the measurement made in the treated group (T) divided by the measurement made in the vehicle treated control group (C). The tumor model used in this assay is L1210 Leukemia resistant to Methotrexate; NSC 740 (intraperitoneal) in B6D2F1 (BDF1) mice

The mark [1] stands for this setting: dose: 5.0 mg/kg/injection, schedule: Q01DX010 (ip), vehicle: saline.
[2] abbreviates: dose: 5.0 mg/kg/injection, schedule: Q01DX Z (ip), vehicle: carboxymethylcellulose (CMC).
Where [3] appears, read: dose: 7.5 mg/kg/injection, schedule: Q01DX Z (ip), vehicle: carboxymethylcellulose (CMC).
The mark [4] stands for this setting: dose: 10.0 mg/kg/injection, schedule: Q01DX Z (ip), vehicle: carboxymethylcellulose (CMC).
Setting [5] is: dose: 15.0 mg/kg/injection, schedule: Q01DX Z (ip), vehicle: carboxymethylcellulose (CMC).
[6] abbreviates: dose: 25.0 mg/kg/injection, schedule: Q01DX Z (ip), vehicle: carboxymethylcellulose (CMC).
[7] abbreviates: dose: 2.0 mg/kg/injection, schedule: Q01DX Z (ip), vehicle: carboxymethylcellulose (CMC).
[8] abbreviates: dose: 4.0 mg/kg/injection, schedule: Q01DX Z (ip), vehicle: other.
Setting [9] is: dose: 0.75 mg/kg/injection, schedule: Q01DX Z (ip), vehicle: saline.
Where [10] appears, read: dose: 1.5 mg/kg/injection, schedule: Q01DX Z (ip), vehicle: saline.
Setting [11] is: dose: 3.0 mg/kg/injection, schedule: Q01DX Z (ip), vehicle: saline.

As to `Nc1nc(=S)c2[nH]cnc2[nH]1`, the T/C is 97 % of control (dose: 0.75 mg/kg/injection, schedule: Q01DX Z (ip), vehicle: carboxymethylcellulose (CMC)); 99 % of control and 106 % of control (dose: 1.25 mg/kg/injection, schedule: Q01DX010 (ip), vehicle: saline); 88 % of control (dose: 1.5 mg/kg/injection, schedule: Q01DX Z (ip), vehicle: carboxymethylcellulose (CMC)); 90 % of control (dose: 2.5 mg/kg/injection, schedule: Q01DX010 (ip), vehicle: saline); 102 % of control (dose: 2.5 mg/kg/injection, schedule: Q01DX Z (ip), vehicle: carboxymethylcellulose (CMC)); 92 % of control under setting [1]. In addition, the T/C under setting [2] is 107 % of control, the T/C under setting [3] was 108 % of control, the T/C under setting [4] is 98 % of control and the T/C under setting [5] was 88 % of control.

On to `O=C(Nc1ccc(C2=NCCCN2)cc1)c1ccc(C(=O)Nc2ccc(C3=NCCCN3)cc2)cc1`, for which the T/C is, setting by setting: (dose: 2.0 mg/kg/injection, schedule: Q01DX010 (ip), vehicle: other) 222 % of control and 252 % of control; (dose: 4.0 mg/kg/injection, schedule: Q01DX010 (ip), vehicle: other) 124 % of control and 242 % of control; under setting [2], 208 % of control; under setting [3], 122 % of control; (dose: 8.0 mg/kg/injection, schedule: Q01DX010 (ip), vehicle: other) 114 % of control and 93 % of control; under setting [4], 114 % of control. Besides, the T/C is, setting by setting: under setting [5], 100 % of control; (dose: 16.0 mg/kg/injection, schedule: Q01DX010 (ip), vehicle: other) 93 % of control; (dose: 20.0 mg/kg/injection, schedule: Q01DX Z (ip), vehicle: carboxymethylcellulose (CMC)) 98 % of control; under setting [6], 96 % of control.

With `C[C@@H]1C[C@@H]([C@H](O)CC2CC(=O)NC(=O)C2)C(=O)[C@@H](C)C1`, the T/C by setting is: under setting [1], 90 % of control and 105 % of control; under setting [3], 112 % of control and 96 % of control; (dose: 10.0 mg/kg/injection, schedule: Q01DX010 (ip), vehicle: saline) 103 % of control; under setting [5], 92 % of control and 108 % of control; (dose: 20.0 mg/kg/injection, schedule: Q01DX010 (ip), vehicle: saline) 97 % of control; (dose: 30.0 mg/kg/injection, schedule: Q01DX Z (ip), vehicle: carboxymethylcellulose (CMC)) 114 % of control. Also, the T/C (dose: 40.0 mg/kg/injection, schedule: Q01DX010 (ip), vehicle: saline) is 95 % of control and 97 % of control.

On to `CC(=O)Nc1ccc2nc3ccc(NC(C)=O)cc3[n+](-c3ccccc3)c2c1`, for which the T/C under setting [7] was 107 % of control; the T/C (dose: 3.0 mg/kg/injection, schedule: Q01DX Z (ip), vehicle: carboxymethylcellulose (CMC)) was 88 % of control; the T/C (dose: 6.0 mg/kg/injection, schedule: Q01DX Z (ip), vehicle: carboxymethylcellulose (CMC)) is 100 % of control.

Take `N#[N+]c1cnc([O-])[nH]c1=O`: the T/C was 106 % of control (dose: 0.16 mg/kg/injection, schedule: Q01DX Z (ip), vehicle: methylcellulose (MC)); 103 % of control (dose: 0.32 mg/kg/injection, schedule: Q01DX Z (ip), vehicle: methylcellulose (MC)); 100 % of control (dose: 0.63 mg/kg/injection, schedule: Q01DX Z (ip), vehicle: methylcellulose (MC)).

`CCCSc1ncnc2nc[nH]c12`: the T/C (dose: 0.5 mg/kg/injection, schedule: Q01DX Z (ip), vehicle: other) is 103 % of control; the T/C (dose: 2.0 mg/kg/injection, schedule: Q01DX Z (ip), vehicle: other) is 93 % of control; the T/C under setting [8] was 93 % of control; the T/C (dose: 31.3 mg/kg/injection, schedule: Q01DX010 (ip), vehicle: saline) is 104 % of control; the T/C (dose: 62.5 mg/kg/injection, schedule: Q01DX010 (ip), vehicle: saline) is 95 % of control; the T/C (dose: 87.5 mg/kg/injection, schedule: Q01DX Z (ip), vehicle: other) is 100 % of control. For the same compound, the T/C (dose: 125.0 mg/kg/injection, schedule: Q01DX010 (ip), vehicle: saline) is 90 % of control; the T/C (dose: 175.0 mg/kg/injection, schedule: Q01DX Z (ip), vehicle: other) was 88 % of control; the T/C (dose: 250.0 mg/kg/injection, schedule: Q01DX010 (ip), vehicle: saline) is 88 % of control.

As for `Nc1nc(F)nc2c1ncn2C1OC(CO)C(O)C1O` (stereo not drawn), the T/C is 122 % of control (dose: 0.25 mg/kg/injection, schedule: Q01DX Z (ip), vehicle: saline); 115 % of control under setting [9]; 108 % of control under setting [10]; 104 % of control under setting [11]; 86 % of control (dose: 6.0 mg/kg/injection, schedule: Q01DX Z (ip), vehicle: saline); 91 % of control (dose: 25.0 micrograms/kg/injection, schedule: Q01DX Z (ip), vehicle: saline). The T/C by setting is: (dose: 50.0 micrograms/kg/injection, schedule: Q01DX Z (ip), vehicle: saline) 92 % of control; (dose: 100.0 micrograms/kg/injection, schedule: Q01DX Z (ip), vehicle: saline) 100 % of control; (dose: 210.0 micrograms/kg/injection, schedule: Q01DX Z (ip), vehicle: saline) 86 % of control.

For `CN(Cc1cnc2nc(N)nc(N)c2n1)c1ccc(C(=O)N[C@@H](CCC(=O)O)C(=O)O)cc1`, the T/C is 95 % of control (dose: 0.19 mg/kg/injection, schedule: Q01DX010 (ip), vehicle: other); 100 % of control (dose: 0.38 mg/kg/injection, schedule: Q01DX010 (ip), vehicle: other); 99 % of control (dose: 0.75 mg/kg/injection, schedule: Q01DX010 (ip), vehicle: other); 120 % of control and 92 % of control (dose: 0.75 mg/kg/injection, schedule: Q01DX Z (ip), vehicle: alkali diluted with saline); 95 % of control and 106 % of control under setting [9]; 100 % of control (dose: 1.5 mg/kg/injection, schedule: Q01DX010 (ip), vehicle: other). Also, the T/C is, setting by setting: (dose: 1.5 mg/kg/injection, schedule: Q01DX Z (ip), vehicle: alkali diluted with saline) 117 % of control and 92 % of control; under setting [10], 94 % of control and 100 % of control; (dose: 3.0 mg/kg/injection, schedule: Q01DX Z (ip), vehicle: alkali diluted with saline) 97 % of control; under setting [11], 87 % of control and 99 % of control; under setting [8], 91 % of control and 95 % of control.

In the case of `N=[N+]=CC(=O)OCC(N)C(=O)O` (stereo not drawn), the T/C was 116 % of control and 121 % of control (dose: 1.25 mg/kg/injection, schedule: Q01DX Z (ip), vehicle: saline); 112 % of control (dose: 2.5 mg/kg/injection, schedule: Q01DX Z (ip), vehicle: saline); 117 % of control and 104 % of control (dose: 10.0 mg/kg/injection, schedule: Q01DX Z (ip), vehicle: saline); 101 % of control (dose: 40.0 mg/kg/injection, schedule: Q01DX Z (ip), vehicle: saline); 93 % of control (dose: 80.0 mg/kg/injection, schedule: Q01DX Z (ip), vehicle: saline).

For `O=C(O)CCCc1ccc(N(CCCl)CCCl)cc1`, the T/C by setting is: (dose: 1.0 mg/kg/injection, schedule: Q01DX Z (ip), vehicle: carboxymethylcellulose (CMC)) 105 % of control; under setting [7], 97 % of control; (dose: 4.0 mg/kg/injection, schedule: Q01DX Z (ip), vehicle: carboxymethylcellulose (CMC)) 96 % of control; under setting [2], 103 % of control; (dose: 6.25 mg/kg/injection, schedule: Q01DX Z (ip), vehicle: carboxymethylcellulose (CMC)) 107 % of control; (dose: 12.5 mg/kg/injection, schedule: Q01DX Z (ip), vehicle: carboxymethylcellulose (CMC)) 95 % of control. The T/C under setting [6] is 90 % of control.

`CN(C)/N=N/c1nc[nH]c1C(N)=O`: the T/C by setting is: (dose: 12.5 mg/kg/injection, schedule: Q01DX010 (ip), vehicle: saline) 108 % of control; (dose: 25.0 mg/kg/injection, schedule: Q01DX010 (ip), vehicle: saline) 118 % of control; (dose: 50.0 mg/kg/injection, schedule: Q01DX010 (ip), vehicle: saline) 119 % of control; (dose: 100.0 mg/kg/injection, schedule: Q01DX010 (ip), vehicle: saline) 118 % of control.
